The assay addresses T1, BRD4 BD2 (Homo sapiens, UniProt O60885, Y97A).
T1 construct: BRD4 (1-477) (Y97A) and (Y390A); made in house; host or cells: E. coli (pET15b vector)
In words: TR-FRET binding assay, BRD4 BD2 (BD1-mutated protein). The note with it: read-out: pIC50 in the BRD4 BD2 assay (converted). The procedure, abridged:
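Displacement of Alexa Fluor647-labelled bromodomain ligand (at Kd) from 10 nM His-tagged BRD4 (1-477, Y97A) read by Eu-anti-His TR-FRET (665/615 ratio) in pH 7.4 HEPES buffer, 0.5% DMSO. Compound preincubated 30 min at rt, detection ≥30 min. pIC50 derived from four-parameter fit after normalisation to controls.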

As to `CC(=O)N1c2ccc(C(=O)NC3COC3)cc2[C@H](Nc2ncccn2)[C@@H](C)[C@@H]1C1CC1` [Example 488, (2S,3R,4R)-1-acetyl-2-cyclopropyl-3-methyl-N-(oxetan-3-yl)-4-(pyrimidin-2-ylamino)-1,2,3,4-tetrahydroquinoline-6-carboxamide], the IC50 was 100 nM.

On to `COCCNC(=O)c1ccc2c(c1)[C@H](Nc1ncccn1)[C@@H](C)[C@H](C1CC1)N2C(C)=O` [Example 489, (2S,3R,4R)-1-acetyl-2-cyclopropyl-N-(2-methoxyethyl)-3-methyl-4-(pyrimidin-2-ylamino)-1,2,3,4-tetrahydroquinoline-6-carboxamide], for which the IC50 is 100 nM.

On to `CC(=O)N1c2ccc(C(=O)NCCO)cc2[C@H](Nc2ccc(C#N)cc2)[C@@H](C)[C@@H]1C1CC1` [Example 492, (2S,3R,4R)-1-acetyl-4-((4-cyanophenyl)amino)-2-cyclopropyl-N-(2-hydroxyethyl)-3-methyl-1,2,3,4-tetrahydroquinoline-6-carboxamide], for which the IC50 was 100 nM.

For `CC(=O)N1c2ccc(C(=O)NC(CO)CO)cc2[C@H](Nc2ccc(C#N)cc2)[C@@H](C)[C@@H]1C1CC1` [Example 493, (2S,3R,4R)-1-acetyl-4-((4-cyanophenyl)amino)-2-cyclopropyl-N-(1,3-dihydroxypropan-2-yl)-3-methyl-1,2,3,4-tetrahydroquinoline-6-carboxamide], the IC50 is 100 nM.

Take `CC(=O)N1c2ccc(F)cc2[C@H](Nc2ncccn2)[C@@H](C)[C@@H]1C` [Example 501, 1-((2S,3R,4R)-6-fluoro-2,3-dimethyl-4-(pyrimidin-2-ylamino)-3,4-dihydroquinolin-1(2H)-yl)ethanone]: the IC50 was 100 nM.

Regarding `CC(=O)N1c2ccc(F)cc2[C@H](Nc2cccnc2C#N)[C@@H](C)[C@@H]1C1CC1` [Example 503, 3-(((2S,3R,4R)-1-acetyl-2-cyclopropyl-6-fluoro-3-methyl-1,2,3,4-tetrahydroquinolin-4-yl)amino)picolinonitrile], the IC50 is 1000 to 100000 nM.

As for `CC(=O)N1c2ccc(F)cc2[C@H](Nc2ncccc2C#N)[C@@H](C)[C@@H]1C` [Example 504, 2-(((2S,3R,4R)-1-acetyl-6-fluoro-2,3-dimethyl-1,2,3,4-tetrahydroquinolin-4-yl)amino)nicotinonitrile], the IC50 was 100 nM.

For `CNC(=O)c1ccc(N[C@H]2c3cc(F)ccc3N(C(C)=O)[C@@H](C)[C@@H]2C)cc1` [Example 506, 4-(((2S,3R,4R)-1-acetyl-6-fluoro-2,3-dimethyl-1,2,3,4-tetrahydroquinolin-4-yl)amino)-N-methylbenzamide], the IC50 was 100 nM.

Turning to `COc1ncccc1N[C@H]1c2cc(F)ccc2N(C(C)=O)[C@@H](C)[C@@H]1C` [Example 509, 1-((2S,3R,4R)-6-fluoro-4-((2-methoxypyridin-3-yl)amino)-2,3-dimethyl-3,4-dihydroquinolin-1(2H)-yl)ethanone], the IC50 was 100 nM.

Consider `CC(=O)N1c2ccc(F)cc2[C@H](Nc2ccnc(O)n2)[C@@H](C)[C@@H]1C` [Example 517, 1-((2S,3R,4R)-6-fluoro-4-((2-hydroxypyrimidin-4-yl)amino)-2,3-dimethyl-3,4-dihydroquinolin-1(2H)-yl)ethanone], for which the IC50 is 1000 to 100000 nM.

As for `CC(=O)N1c2ccc(F)cc2[C@H](Nc2cccnc2O)[C@@H](C)[C@@H]1C` [Example 518, 1-((2S,3R,4R)-6-fluoro-4-((2-hydroxypyridin-3-yl)amino)-2,3-dimethyl-3,4-dihydroquinolin-1(2H)-yl)ethanone], the IC50 is 100 nM.

`CC(=O)N1c2ccc(F)cc2[C@H](Nc2ccnc(O)n2)[C@@H](C)[C@@H]1C1CC1` [Example 519, 1-((2S,3R,4R)-2-cyclopropyl-6-fluoro-4-((2-hydroxypyrimidin-4-yl)amino)-3-methyl-3,4-dihydroquinolin-1(2H)-yl)ethanone]: the IC50 was 1000 to 100000 nM.

For `CC(=O)N1c2ccc(F)cc2[C@H](Nc2ccc(C(N)=O)cn2)[C@@H](C)[C@@H]1C1CC1` [Example 522, 6-(((2S,3R,4R)-1-acetyl-2-cyclopropyl-6-fluoro-3-methyl-1,2,3,4-tetrahydroquinolin-4-yl)amino)nicotinamide], the IC50 is 1000 to 100000 nM.

For `CC(=O)N1c2ccc(F)cc2[C@H](Nc2ncccc2C(N)=O)[C@@H](C)[C@@H]1C1CC1` [Example 523, 2-(((2S,3R,4R)-1-acetyl-2-cyclopropyl-6-fluoro-3-methyl-1,2,3,4-tetrahydroquinolin-4-yl)amino)nicotinamide], the IC50 is 100 nM.

Take `CC(=O)N1c2ccc(F)cc2[C@H](Nc2ncccc2C(N)=O)[C@@H](C)[C@@H]1C` [Example 527, 2-(((2S,3R,4R)-1-acetyl-6-fluoro-2,3-dimethyl-1,2,3,4-tetrahydroquinolin-4-yl)amino)nicotinamide]: the IC50 is 100 nM.

Consider `CC(=O)N1c2ccc(F)cc2[C@H](Nc2nc(C)ccc2C(N)=O)[C@@H](C)[C@@H]1C` [Example 528, 2-(((2S,3R,4R)-1-acetyl-6-fluoro-2,3-dimethyl-1,2,3,4-tetrahydroquinolin-4-yl)amino)-6-methylnicotinamide], for which the IC50 was 100 nM.

For `CC(=O)N1c2ccc(F)cc2[C@H](Nc2ccnc(O)c2)[C@@H](C)[C@@H]1C1CC1` [Example 531, 1-((2S,3R,4R)-2-cyclopropyl-6-fluoro-4-((2-hydroxypyridin-4-yl)amino)-3-methyl-3,4-dihydroquinolin-1(2H)-yl)ethanone], the IC50 is 1000 to 100000 nM.

`CC(=O)N1c2ccc(F)cc2[C@H](Nc2cc(O)ccn2)[C@@H](C)[C@@H]1C1CC1` [Example 532, 1-((2S,3R,4R)-2-cyclopropyl-6-fluoro-4-((4-hydroxypyridin-2-yl)amino)-3-methyl-3,4-dihydroquinolin-1(2H)-yl)ethanone]: the IC50 is 1000 to 100000 nM.

For the compound `CC(=O)N1c2ccc(F)cc2[C@H](Nc2ccc(O)nc2)[C@@H](C)[C@@H]1C1CC1` [Example 533, 1-((2S,3R,4R)-2-cyclopropyl-6-fluoro-4-((6-hydroxypyridin-3-yl)amino)-3-methyl-3,4-dihydroquinolin-1(2H)-yl)ethanone], the IC50 was 1000 to 100000 nM.

Turning to `CC(=O)N1c2ccc(C3=CCOCC3)cc2[C@H](Nc2ncccn2)[C@@H](C)[C@@H]1C1CC1` [Example 555, 1-((2S,3R,4R)-2-cyclopropyl-6-(3,6-dihydro-2H-pyran-4-yl)-3-methyl-4-(pyrimidin-2-ylamino)-3,4-dihydroquinolin-1(2H)-yl)ethanone], the IC50 is 100 nM.

`COCCn1cc(-c2ccc3c(c2)[C@H](Nc2nccc(C)n2)[C@@H](C)[C@H](C2CC2)N3C(C)=O)cn1` [Example 557, 1-((2S,3R,4R)-2-cyclopropyl-6-(1-(2-methoxyethyl)-1H-pyrazol-4-yl)-3-methyl-4-((4-methylpyrimidin-2-yl)amino)-3,4-dihydroquinolin-1(2H)-yl)ethanone]: the IC50 is 100 nM.

`CC(=O)N1c2ccc(N3CCNCC3)cc2[C@H](Nc2ccc(C(N)=O)cc2)[C@@H](C)[C@@H]1C` [Example 571, 4-(((2S,3R,4R)-1-acetyl-2,3-dimethyl-6-(piperazin-1-yl)-1,2,3,4-tetrahydroquinolin-4-yl)amino)benzamide]: the IC50 is 100 nM.

Consider `CC(=O)N1c2ccc(-c3cn[nH]c3)cc2[C@H](Nc2ncccn2)[C@@H](C)[C@@H]1C1CC1` [Example 581, 1-((2S,3R,4R)-2-cyclopropyyl-3-methyl-6-(1H-pyrazol-4-yl)-4-(pyrimidin-2-ylamino)-3,4-dihydroquinolin-1(2H)-yl)ethanone], for which the IC50 is 100 nM.

For `CC(=O)N1c2ccc(-c3cn[nH]c3)cc2[C@H](Nc2nccc(C)n2)[C@@H](C)[C@@H]1C1CC1` [Example 582, 1-((2S,3R,4R)-2-cyclopropyl-3-methyl-4-((4-methylpyrimidin-2-yl)amino)-6-(1H-pyrazol-4-yl)-3,4-dihydroquinolin-1(2H)-yl)ethanone], the IC50 was 100 nM.

Take `CC(=O)N1c2ccc(-c3ncc[nH]3)cc2[C@H](Nc2ncccn2)[C@@H](C)[C@@H]1C1CC1` [Example 588, 1-((2S,3R,4R)-2-cyclopropyl-6-(1H-imidazol-2-yl)-3-methyl-4-(pyrimidin-2-ylamino)-3,4-dihydroquinolin-1(2H)-yl)ethanone]: the IC50 is 100 nM.

With `CC(=O)N1c2ccc(-c3nnc(C)s3)cc2[C@H](Nc2ncccn2)[C@@H](C)[C@@H]1C1CC1` [Example 590, 1-((2S,3R,4R)-2-cyclopropyl-3-methyl-6-(5-methyl-1,3,4-thiadiazol-2-yl)-4-(pyrimidin-2-ylamino)-3,4-dihydroquinolin-1(2H)-yl)ethanone], the IC50 is 100 nM.
